# Source: patent US20110091570A1, “Compositions and Devices for Antisepsis and Anticoagulation” (priority 2008, published 2011)
# Tests used:
# [1] = tested on: methicillin-resistant Staphylococcus aureus; assay: Bactericidal activity of NCT without and with heparin (CFU counts); assay type: cell-based
# [2] = tested on: Escherichia coli, ATCC 11229; assay: Bactericidal activity of NCT with heparin in human whole blood; assay type: cell-based; conditions: 37° C.
# Procedure: FIG. 11 presents a plot of bactericidal activity of 1% NCT with 125 IE/mL heparin in human blood against Escherichia coli (ATCC 11229) at pH 7.1 and 37° C. Mean values±standard error of the mean of three independent experiments. P<0.01 between NCT and control samples.
# Bacteria (Staphylococcus aureus, ATCC 25923 and Escherichia coli, ATCC 11229) grown in tryptic soy broth overnight were washed twice in saline and suspended in human whole blood containing 125 IE/mL heparin. Different volumes of a saline solution of NCT sodium salt were added to the suspension so that the test samples contained 10%, 25%, 50%, and 75% blood. In addition, 100% blood plus 125 IE/mL heparin was tested at which NCT was directly dissolved in blood. The final NCT concentration after mixing blood and NCT solutions was 1% in all samples. Controls contained 100% blood plus 125 IE/mL heparin and 10%, 25%, 50% and 75% blood, respectively, in saline, plus 125 IE/mL heparin without NCT. All of the solutions were incubated at 37° C. and pH 7.36-7.44 (the pH of blood). After 1, 3, 5, 10, 15, 30, 45 and 60 minutes, aliquots of 100 μL were removed and diluted tenfold or 100-fold in 0.6% sodium thiosulfate solution to inactivate the NCT. Aliquots (50 μL) of these dilutions were spread on tryptic soy agar plates. The plates were incubated at 37° C. and colony forming units of bacteria were counted after 24 and 48 hours. […]
# [3] = tested on: purulent coated crural ulcers; conditions: purulent coated crural ulcers [Ref. 17]; cited from earlier work
# mice = conditions: transtympanal injection of 0.1%, 1%, and 10% NCT, mice [Ref. 19]; cited from earlier work
compound,measurement,setting,value
"O=S(=O)(O)CCNCl [NCT, N-chlorotaurine]",influence of heparin on the killing of bacteria,"[1]; 0.1% NCT, virtually identical experiments",no statistically significant influence of heparin on the killing of bacteria
same,killing activity of NCT with vs without heparin,"[1]; 1% NCT, 125 IE/mL heparin, pH 7.1, 37° C., 1-10 min",no difference in the killing activity
same,bactericidal activity in blood,[2]; 1% NCT dissolved in 100% blood plus 125 IE/mL heparin,no significant bactericidal activity was detected
same,bactericidal activity in blood,"[2]; 1% NCT in 10%, 25%, 50% and 75% blood plus 125 IE/mL heparin",demonstrated bactericidal activity
same,pain and toxicity versus chloramine T,[3],significantly less pain and was less toxic than chloramine T
same,damage of the inner ear,mice,did not cause damage of the inner ear
